# Results from publication PMC4865820, “Branched Peptide, B2088, Disrupts the Supramolecular Organization of Lipopolysaccharides and Sensitizes the Gram-negative Bacteria” (Scientific Reports, 2016).
# Columns and labels:
# P. aeruginosa DR4877/07 [1] = assay: microbe, parasite or virus in culture; details: Pseudomonas aeruginosa, DR4877/07, 24 h, read-out: MIC of antibiotics
# Procedure: (§1) MIC of each peptide was determined using the microdilution method in a 96 well microtitre plates (SPL Life Sciences Co., Ltd, Korea). Two-fold serial dilutions of each peptide in Mueller-Hinton Broth (MHB) was prepared from a 1 mg/ml stock solution of the peptide in the same broth, to obtain a final concentration in the range of 0.0976–50 μg/ml in each well. Bacterial suspensions (P. aeruginosa ATCC 27853, P. aeruginosa 4877, P. aeruginosa 23155, K. pneumoniae ATCC 10031 and K. pneumoniae 4299) were prepared by suspending the overnight cultured bacteria in saline and adjusting the inoculum to ~10^8 colony forming units (CFU) per ml. A further 150-fold dilution was then prepared in MHB to achieve a final cell density of 10^5–10^6 CFU/ml. In each well, 100 μl of inoculum was mixed with the equal volume of peptides at their 2× concentration. Positive and negative controls contained 200 μl of inoculum (without any peptide) and broth alone (no peptide/inoculum) respectively. Another negative control in which MHB containing 200 μl of peptide alone in its highest concentration tested (50 μg/ml) was also included to ensure that the optical density measured in the test wells was not due to turbidity of the peptides in solution. The 96 well polystyrene plates were then incubated at 37 °C for 24 h and the optical density at 600 nm (OD600) was measured every 30 min continuously using a TECAN microplate reader (TECAN Infinite 200, Austria).
# [2] = test system: E. coli D21 and LPS outer core polysaccharide truncated mutant strains; assay: MIC ratio against LPS-truncated E. coli mutants; format: cell-based; details: oligosaccharide-truncated mutants vs wild type D21; increase seen against D21e9 lacking outer core polysaccharides
# Text: LPS is a complex glycosylated lipid molecule comprising of a hydrophobic lipid A and core oligosaccharides. The core oligosaccharides are structurally divided into an inner core (lipid A proximal) region and an outer core O-antigen region (Fig. 4a). To ascertain if the alterations in OM polysaccharides modify the barrier penetration and antimicrobial properties of the peptides, we determined the MIC of the peptides against 4 cell-wall defective mutants of E. coli (Fig. 4a). We report the MIC ratio (i.e., MICmut/MICwt) which is the ratio of MIC of peptides/antibiotics against oligosaccharides truncated mutant strains over MIC of wild type (D21) strains. For antibiotics that access intracellular targets through porin pathways or peptides that bind to the lipid A part of the LPS, the MIC ratio is independent of LPS truncation (Fig. 4b). However, antibiotics or peptides which interact with outer or inner core polysaccharides of the LPS are expected to show changes in the MIC ratio.
# All the peptide congeners were purchased from M/s. Mimotopes Pty Ltd, Australia. The peptides were used as such and the homogeneity of peptides were confirmed by HPLC. Unless otherwise stated all the chemicals and the antibiotics tested were purchased from Sigma Aldrich (Singapore) Pte Ltd. The florescent probe, BODIPY TR cadaverine (BC) was purchased from Molecular Probes/ Invitrogen (CA, USA). E. coli LPS outer core polysaccharide truncated mutant strains were obtained from CGSG, The Coli Genetic Stock Centre, Yale University, […], USA. Relevant genotype of the strains are, D21 (rfa+); D21e19 (rfa-11) is a deficient mutant in carbohydrates close to the O-antigen part; D21e7 (rfa-1) is deficient in galactose as well as O-antigen; D21f1 (rfa-1, rfa21) lacks phosphate groups in the LPS has glucose and heptose intact; D21f2 (rfa-1, rfa-31) is deficient in heptose of the inner core[57][58].
# as §1, with “Austria). All the experiments were performed in two independent duplicates and the MIC was determined as the lowest peptide concentration in which no visible growth was observed.” for “Austria).”
# P. aeruginosa DR4877/07 [3] = format: cell-based; details: for FICI of B2088-antibiotic combination: lowest FICI reported, two independent duplicates; for Fold decrease in the MIC of antibiotics at sub-lethal/sub-inhibitory concentrations of B2088: multidrug resistant P. aeruginosa 4877
# Method in brief: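 Checkerboard combinations of peptide and antibiotic, each 2-fold diluted up to 1× MIC in MHB, were tested against ~10^6 CFU/ml final inoculum. Plates were incubated 24 h at 37 °C, with growth read at OD600. FICI was the sum of the combination-to-alone MIC ratios for each agent, and the lowest FICI from duplicate experiments was reported.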
# K. pneumonia 07955 = assay: Checkerboard assay; format: cell-based, K. pneumoniae; details: for Fractional inhibitory concentration of B2088 used for FICI calculation: first number in parenthesis, in combination with the labelled antibiotic; for Fractional inhibitory concentration of antibiotic used for FICI calculation: second number in parenthesis, in combination with B2088
# Procedure: (§2) The synergism between peptides with conventional antibiotics was evaluated using checkerboard assays. For a comparison polymyxin B (PMB) was also tested against each antibiotic. From their stock solutions, two-fold dilutions of each antibiotic and peptide to 1× MIC were prepared in MHB. 50 μl of each peptide concentration was added into the wells of a 96-well polystyrene plates (SPL Life Sciences Co. Ltd, Korea) in a horizontal orientation and the same volume of each antibiotic concentration were then added in a vertical orientation. Bacterial suspensions were prepared in MHB to yield final cell density of ~10^6 CFU/ml and 100 μl of bacterial suspension was mixed with each peptide-antibiotic combinations. This procedure was repeated for wells containing 200 μl of peptide alone and 200 μl of antibiotic alone in various concentrations. The positive and negative controls contained 200 μl of inoculum and MHB alone respectively. The plates were incubated at 37 °C for 24 hours and the optical density at 600 nm (OD600) was monitored as before. Fractional inhibitory concentration index (FICI) for all antibiotic- peptide combinations was calculated through the summation of (MIC of peptide in the combination/ MIC of peptide alone) and (MIC of antibiotics in combination/MIC of antibiotic alone). The experiments were performed in two independent duplicates and the combinations that gave the lowest FICI values was reported.
# K. pneumonia 31158 = assay: Checkerboard assay; format: cell-based, K. pneumoniae; details: for Fractional inhibitory concentration of B2088 used for FICI calculation: first number in parenthesis, in combination with the labelled antibiotic; for Fractional inhibitory concentration of antibiotic used for FICI calculation: second number in parenthesis, in combination with B2088
# Procedure: as §2
# K. pneumonia 4299 [4] = assay: Checkerboard assay; format: cell-based, K. pneumoniae; details: for Fractional inhibitory concentration of B2088 used for FICI calculation: first number in parenthesis, in combination with the labelled antibiotic; for Fractional inhibitory concentration of antibiotic used for FICI calculation: second number in parenthesis, in combination with B2088
# Procedure: as §2
# K. pneumonia 4299 [5] = assay: microbe, parasite or virus in culture; format: cell-based, K. pneumoniae; details: Klebsiella pneumoniae, 4299; individual peptide/antibiotics; read-out: MIC against K. pneumoniae 4299
# Method in brief: (§3)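 Peptides two-fold diluted in Mueller-Hinton Broth (0.0976–50 μg/ml final) against 10^5–10^6 CFU/ml inoculum, 37 °C for 24 h with OD600 monitored every 30 min. MIC = lowest concentration with no visible growth; two independent duplicates.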
# P. aeruginosa ATCC 9027 [6] = assay: MIC, microdilution; format: cell-based
# P. aeruginosa ATCC 27853 = assay: microbe, parasite or virus in culture; format: cell-based; details: Pseudomonas aeruginosa, ATCC27853; antibiotic alone; read-out: MIC of gentamicin against this strain
# Method in brief: as §3
# K. pneumoniae 31158 = assay: microbe, parasite or virus in culture; format: cell-based; details: Klebsiella pneumoniae, 31158; individual peptide/antibiotics; read-out: MIC against K. pneumoniae 31158
# K. pneumoniae 07955 = assay: microbe, parasite or virus in culture; format: cell-based; details: Klebsiella pneumoniae, 07955; individual peptide/antibiotics; read-out: MIC against K. pneumoniae 07955
# P. aeruginosa ATCC 9027 [7] = assay: Checkerboard assay; format: cell-based
# Procedure: as §2
# [8] = MIC of B2088 6.25 μg/ml, MHB, ~10^6 CFU/ml, 37 °C, 24 h
smiles,measurement,setting,value
"CC1(C)S[C@@H]2[C@H](NC(=O)C(C(=O)O)c3ccccc3)C(=O)N2[C@H]1C(=O)O (stereo partly drawn) [Carbenicillin, reference compound]",MIC,P. aeruginosa DR4877/07 [1],1600 µg/mL
same,MIC ratio (MICmut/MICwt),[2],did not show any change
same,MIC of antibiotics in the presence of ¼× sub-MIC of B2088,P. aeruginosa DR4877/07 [3]; [8],800 µg/mL
same,MIC of antibiotics in the presence of ½× sub-MIC of B2088,P. aeruginosa DR4877/07 [3]; [8],200 µg/mL
same,FICI of B2088-antibiotic combination,P. aeruginosa DR4877/07 [3],0.63
CNC(C)C1CCC(N)C(OC2C(N)CC(N)C(OC3OCC(C)(O)C(NC)C3O)C2O)O1 (stereo not drawn) [Gentamicin],Fractional Inhibitory Concentration Index of B2088 with the antibiotic,K. pneumonia 07955,0.75
same,Fractional inhibitory concentration of B2088 used for FICI calculation,K. pneumonia 07955,0.25
same,Fractional inhibitory concentration of antibiotic used for FICI calculation,K. pneumonia 07955,0.5
same,Fractional Inhibitory Concentration Index of B2088 with the antibiotic,K. pneumonia 31158,0.31
same,Fractional inhibitory concentration of B2088 used for FICI calculation,K. pneumonia 31158,0.25
same,Fractional inhibitory concentration of antibiotic used for FICI calculation,K. pneumonia 31158,0.06
same,Fractional Inhibitory Concentration Index of B2088 with the antibiotic,K. pneumonia 4299 [4],0.37
same,Fractional inhibitory concentration of B2088 used for FICI calculation,K. pneumonia 4299 [4],0.125
same,Fractional inhibitory concentration of antibiotic used for FICI calculation,K. pneumonia 4299 [4],0.25
same,MIC,K. pneumonia 4299 [5],0.39 µg/mL
same,MIC of antibiotics (Table S1),"P. aeruginosa ATCC 9027 [6]; Gentamycin alone, ATCC 9027",0.39 µg/mL
same,MIC of antibiotics,"P. aeruginosa ATCC 9027 [6]; gentamicin alone, ATCC 9027 used because DR4877/07 too resistant",0.39 µg/mL
same,MIC,P. aeruginosa ATCC 27853,0.04 µg/mL
same,MIC ratio (MICmut/MICwt),[2],marked increase
same,MIC,K. pneumoniae 31158,0.05 µg/mL
same,Fold decrease in the MIC of antibiotics at sub-lethal/sub-inhibitory concentrations of B2088,P. aeruginosa DR4877/07 [3],4 fold
same,MIC,K. pneumoniae 07955,100 µg/mL
same,FICI of polymyxin B-antibiotic combination,P. aeruginosa ATCC 9027 [7]; Gentamycin,1.0
same,MIC of antibiotics in the presence of ½ × sub-MIC of Polymyxin B,P. aeruginosa ATCC 9027 [7]; Gentamycin,0.195 µg/mL
same,MIC of antibiotics in the presence of ¼× sub-MIC of B2088,P. aeruginosa ATCC 9027 [7]; gentamicin,0.098 µg/mL
same,MIC of antibiotics in the presence of ½× sub-MIC of B2088,P. aeruginosa ATCC 9027 [7]; gentamicin,0.024 µg/mL
same,MIC of antibiotics in the presence of ⅛× sub-MIC of B2088,P. aeruginosa ATCC 9027 [7]; gentamicin,0.195 µg/mL
same,FICI of B2088-antibiotic combination,"P. aeruginosa ATCC 9027 [7]; gentamicin, lowest FICI reported",0.5
O=C(N[C@H](CO)[C@H](O)c1ccc([N+](=O)[O-])cc1)C(Cl)Cl [Chloramphenicol],Fractional Inhibitory Concentration Index of B2088 with the antibiotic,K. pneumonia 07955,0.38
same,Fractional inhibitory concentration of B2088 used for FICI calculation,K. pneumonia 07955,0.13
same,Fractional inhibitory concentration of antibiotic used for FICI calculation,K. pneumonia 07955,0.25
same,Fractional Inhibitory Concentration Index of B2088 with the antibiotic,K. pneumonia 31158,0.63
same,Fractional inhibitory concentration of B2088 used for FICI calculation,K. pneumonia 31158,0.5
same,Fractional inhibitory concentration of antibiotic used for FICI calculation,K. pneumonia 31158,0.13
same,Fractional Inhibitory Concentration Index of B2088 with the antibiotic,K. pneumonia 4299 [4],0.38
same,Fractional inhibitory concentration of B2088 used for FICI calculation,K. pneumonia 4299 [4],0.13
same,Fractional inhibitory concentration of antibiotic used for FICI calculation,K. pneumonia 4299 [4],0.25
same,MIC,P. aeruginosa DR4877/07 [1],200 µg/mL
same,MIC,K. pneumonia 4299 [5],12.5 µg/mL
same,MIC ratio (MICmut/MICwt),[2],marked increase
same,MIC,K. pneumoniae 31158,3.12 µg/mL
same,FICI of polymyxin B-antibiotic combination,P. aeruginosa DR4877/07 [3],0.63
same,MIC of antibiotics in the presence of ¼× sub-MIC of B2088,P. aeruginosa DR4877/07 [3]; [8],50 µg/mL
same,MIC of antibiotics in the presence of ½× sub-MIC of B2088,P. aeruginosa DR4877/07 [3]; [8],25 µg/mL
same,MIC of antibiotics in the presence of ⅛× sub-MIC of B2088,P. aeruginosa DR4877/07 [3]; [8],100 µg/mL
same,FICI of B2088-antibiotic combination,P. aeruginosa DR4877/07 [3],0.5
same,Fold decrease in the MIC of antibiotics at sub-lethal/sub-inhibitory concentrations of B2088,P. aeruginosa DR4877/07 [3],4 fold
same,MIC,K. pneumoniae 07955,50 µg/mL
